Measurements published in PMC12175890 (Science Advances, 2025).

Target: T1, BdPAPT-CD (Babesia duncani, UniProt A0AAD9PLN9)
T1 sequence (A0AAD9PLN9 301-734): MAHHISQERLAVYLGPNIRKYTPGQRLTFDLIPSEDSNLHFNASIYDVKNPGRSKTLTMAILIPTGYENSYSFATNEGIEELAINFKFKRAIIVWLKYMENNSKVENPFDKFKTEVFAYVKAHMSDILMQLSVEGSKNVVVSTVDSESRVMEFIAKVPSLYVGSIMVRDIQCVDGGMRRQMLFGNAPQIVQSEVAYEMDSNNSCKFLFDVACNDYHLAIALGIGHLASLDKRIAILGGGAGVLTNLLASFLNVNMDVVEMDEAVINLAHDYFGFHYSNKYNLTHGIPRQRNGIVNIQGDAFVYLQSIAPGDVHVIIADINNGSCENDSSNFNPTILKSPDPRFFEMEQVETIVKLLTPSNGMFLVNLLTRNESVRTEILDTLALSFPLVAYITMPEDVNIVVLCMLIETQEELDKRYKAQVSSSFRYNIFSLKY
Experiment: TLC of spermidine formation
Assay type: biochemical
Settings: 0.1 mM dcSAM, 0.1 mM putrescine, 37 °C, potassium phosphate pH 7.5

NCCCCN [PUT]
TLC of spermidine formation: efficient conversion of PUT to SPD by BdPAPT-Cterm and its CD
